From article PMC3914206

Key:
panel of 442 kinases [1] = target: T1, panel of 442 kinases (Homo sapiens, UniProt O14730); format: binding; settings: Compound Concentration 10 µM
T1 construct: purchased KINOMEscan
T1 sequence (O14730 1-519): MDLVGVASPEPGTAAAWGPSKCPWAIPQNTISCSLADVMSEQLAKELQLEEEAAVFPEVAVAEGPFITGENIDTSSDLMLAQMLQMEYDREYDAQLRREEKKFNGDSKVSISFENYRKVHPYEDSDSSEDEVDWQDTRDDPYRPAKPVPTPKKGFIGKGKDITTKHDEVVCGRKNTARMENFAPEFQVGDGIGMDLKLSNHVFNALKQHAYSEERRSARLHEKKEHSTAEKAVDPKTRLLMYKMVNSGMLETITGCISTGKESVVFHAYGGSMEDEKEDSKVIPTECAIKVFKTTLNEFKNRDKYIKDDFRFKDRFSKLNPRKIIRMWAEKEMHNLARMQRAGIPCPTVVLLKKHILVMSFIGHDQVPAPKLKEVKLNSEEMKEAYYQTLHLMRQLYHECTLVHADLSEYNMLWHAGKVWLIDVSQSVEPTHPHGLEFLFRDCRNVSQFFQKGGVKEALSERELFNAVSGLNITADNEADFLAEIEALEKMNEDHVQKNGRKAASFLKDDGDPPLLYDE
Description: (§1) We assessed the selectivity of members of this scaffold using the KINOMEscan methodology across a near comprehensive panel of 442 kinases [[18,27]].

panel of 442 kinases [2] = target: T2, panel of 442 kinases (Homo sapiens, UniProt Q07912); format: binding; settings: kinase TNK2; compound concentration 10 µM
T2 construct: purchased KINOMEscan
Description: as §1

T2 sequence (Q07912 whole entry): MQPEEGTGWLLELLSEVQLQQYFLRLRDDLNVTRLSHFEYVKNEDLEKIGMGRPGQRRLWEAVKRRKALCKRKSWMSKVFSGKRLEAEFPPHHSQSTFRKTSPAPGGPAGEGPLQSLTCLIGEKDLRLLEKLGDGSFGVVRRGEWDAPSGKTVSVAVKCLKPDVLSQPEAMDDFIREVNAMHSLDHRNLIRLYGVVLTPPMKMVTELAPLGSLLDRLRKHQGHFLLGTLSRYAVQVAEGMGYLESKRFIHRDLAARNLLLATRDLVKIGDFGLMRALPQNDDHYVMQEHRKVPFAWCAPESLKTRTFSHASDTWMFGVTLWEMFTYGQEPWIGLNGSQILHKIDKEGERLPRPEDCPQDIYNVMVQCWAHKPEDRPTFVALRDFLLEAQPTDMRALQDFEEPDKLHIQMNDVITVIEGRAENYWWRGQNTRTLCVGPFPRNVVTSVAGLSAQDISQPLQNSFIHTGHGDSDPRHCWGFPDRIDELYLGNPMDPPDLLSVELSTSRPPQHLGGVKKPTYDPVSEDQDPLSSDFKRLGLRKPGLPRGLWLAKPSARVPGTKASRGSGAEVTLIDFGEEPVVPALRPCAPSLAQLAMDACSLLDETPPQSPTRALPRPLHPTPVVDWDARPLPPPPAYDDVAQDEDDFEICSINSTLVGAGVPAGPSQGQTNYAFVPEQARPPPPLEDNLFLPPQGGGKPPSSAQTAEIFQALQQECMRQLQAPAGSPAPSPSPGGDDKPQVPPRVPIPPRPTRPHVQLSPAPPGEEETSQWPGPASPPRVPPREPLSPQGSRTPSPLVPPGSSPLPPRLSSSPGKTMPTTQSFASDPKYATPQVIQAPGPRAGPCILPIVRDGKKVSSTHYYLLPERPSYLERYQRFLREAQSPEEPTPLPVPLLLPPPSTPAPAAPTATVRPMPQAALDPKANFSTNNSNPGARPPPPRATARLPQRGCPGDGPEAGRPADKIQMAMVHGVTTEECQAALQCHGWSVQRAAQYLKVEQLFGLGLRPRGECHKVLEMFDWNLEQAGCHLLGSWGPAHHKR

SMILES	KINOMEscan: RIOK3 (panel of 442 kinases [1])	% Ctrl, TNK2 (panel of 442 kinases [2]) [% Ctrl]
COc1cc(C(=O)N2CCC(N3CCN(C)CC3)CC2)ccc1Nc1ncc2c(n1)N1CCc3cccc(c31)C(=O)N2C [Compound 24]	74	43
CCOc1cc(C(=O)N2CCC(N3CCN(C)CC3)CC2)ccc1Nc1ncc2c(n1)N(C1CCCC1)c1ccccc1C(=O)N2C [Compound 26]	89	80
COc1cc(C(=O)N2CCC(N3CCN(C)CC3)CC2)ccc1Nc1ncc2c(n1)N(C1CCCC1)c1ccccc1C(=O)N2C [Compound 25, 11-cyclopentyl-2-((2-methoxy-4-(4-(4-methylpiperazin-1-yl)piperidine-1-carbonyl)phenyl)amino)-5-methyl-5H-benzo[e]pyrimido[5,4-b][1,4]diazepin-6(11H)-one]	84	35
COc1cc(C(=O)N2CCC(N3CCN(C)CC3)CC2)ccc1Nc1ncc2c(n1)N(C)c1ccccc1C(=O)N2C [15 (LRRK2-IN-1)]	85	18
